Data taken from paper PMC9305623, “Next generation GLP-1/GIP/glucagon triple agonists normalize body weight in obese mice” (Molecular Metabolism, 2022).
*1 amine or outer side, *2 acyl side, *3 side chain or, on linkers, in order; H or OH if unused. Where a SMILES comes first, the peptide text is derived from it. Side-chain parts run from the residue outwards. [ ]: non-standard residue; d: D form. The star is where a group is joined. C20 diacid = O=C(O)CCCCCCCCCCCCCCCCCCC(=O)*; γGlu = O=C(O)[C@H](CCC(=O)[*:2])N[*:1]; εLys = N[C@@H](CCCCN[*:1])C(=O)[*:2]; Aib = CC(C)(N)C(=O)O

Legend:
[1] = target: T1, mGLP-1 Receptor (Mus musculus, UniProt O35659); test: Receptor activation: cAMP production by CRE-luciferase reporter in stably transfected BHK cells; type: cell-based; details: relative to native ligand at mouse-derived receptor
T1 construct: expressed in transfected cells; host or cells: baby hamster kidney (BHK) cells, stably transfected, with CRE-firefly luciferase reporter
T1 sequence (O35659 22-463): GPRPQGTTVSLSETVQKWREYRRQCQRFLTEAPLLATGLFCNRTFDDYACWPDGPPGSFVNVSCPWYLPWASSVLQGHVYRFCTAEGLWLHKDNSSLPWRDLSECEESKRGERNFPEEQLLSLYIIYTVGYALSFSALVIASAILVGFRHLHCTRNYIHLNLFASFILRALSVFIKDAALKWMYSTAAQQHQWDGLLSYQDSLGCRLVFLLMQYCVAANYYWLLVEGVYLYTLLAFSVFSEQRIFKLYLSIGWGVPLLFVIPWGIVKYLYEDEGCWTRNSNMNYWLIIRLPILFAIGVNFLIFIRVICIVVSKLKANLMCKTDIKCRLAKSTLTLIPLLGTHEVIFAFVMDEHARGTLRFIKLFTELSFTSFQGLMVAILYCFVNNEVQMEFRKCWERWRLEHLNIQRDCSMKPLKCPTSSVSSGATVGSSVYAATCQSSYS
Protocol: (§1) Cyclic AMP (cAMP) production was assessed as a proxy for receptor activation using stably transfected baby hamster kidney (BHK) cell lines expressing the DNA for one individual receptor (GLP-1R, GIPR, GcgR; human- or mouse-specific sequence) and the DNA for the firefly luciferase reporter gene linked to the cAMP response element (CRE). The cells were kept in continuous culture at 37 °C and 5% CO2 in Dulbecco's Modified Eagle Medium (DMEM) supplemented with 10% heat-inactivated fetal bovine serum (HI-FBS), 300 μg/mL hygromycin, and 500 μg/mL G418; for cell lines expressing GIPR, the G418 concentration was lowered to 400 μg/mL. Cells were plated in a 96-well poly-D-lysine-coated plate at 5,000 cells per well in growth media and incubated overnight at 37 °C with 5% CO2. After the overnight incubation, the media was removed, the plate was washed once in Dulbecco's phosphase-buffered saline (DPBS), and 50 μL of assay buffer (DMEM without phenol red, 10 mM HEPES, 1x Glutamax, 1% ovalbumin, 0.1% Pluronic F-68) was added to each well. […] The assay plate was covered to protect reagent from light, shaken at 250 rpm at room temperature for 30 min, and read in a microtiter plate reader. EC50 values were calculated using Prism software (GraphPad) with the nonlinear regression log(agonist) vs. response. A minimum of two replicates were measured for each sample.

[2] = target: T2, mGIP Receptor (Mus musculus, UniProt Q0P543); test: as above; type: cell-based; details: relative to native ligand at mouse-derived receptor
T2 construct: expressed in transfected cells; host or cells: baby hamster kidney (BHK) cells, stably transfected, with CRE-firefly luciferase reporter
T2 sequence (Q0P543 19-460): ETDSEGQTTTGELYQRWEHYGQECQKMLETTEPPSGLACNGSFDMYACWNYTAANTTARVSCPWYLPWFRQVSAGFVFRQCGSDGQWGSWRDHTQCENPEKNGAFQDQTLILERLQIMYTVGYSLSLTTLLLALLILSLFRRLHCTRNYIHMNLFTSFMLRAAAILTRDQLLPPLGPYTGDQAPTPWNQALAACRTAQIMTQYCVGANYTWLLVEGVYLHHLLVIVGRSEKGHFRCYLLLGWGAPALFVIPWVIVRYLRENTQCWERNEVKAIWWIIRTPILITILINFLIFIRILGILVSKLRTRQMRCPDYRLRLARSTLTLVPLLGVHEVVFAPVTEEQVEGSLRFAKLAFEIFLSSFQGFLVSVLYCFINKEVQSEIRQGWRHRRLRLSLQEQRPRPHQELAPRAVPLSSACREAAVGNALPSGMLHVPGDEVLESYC
Protocol: as §1

[3] = target: T3, mGcg Receptor (Mus musculus, UniProt Q61606); test: as above; type: cell-based; details: relative to native ligand at mouse-derived receptor
T3 construct: expressed in transfected cells; host or cells: baby hamster kidney (BHK) cells, stably transfected, with CRE-firefly luciferase reporter
Protocol: as §1

[4] = in vivo; parameters: species or system Göttingen minipigs; details: female, Göttingen, minipig, iv, 2 nmol/kg
Protocol: Studies were conducted in accordance with the Protection of Animals Act, the Act on Experiments on Animals, and the Standard Operating Procedures for Experiments on Animals at Novo Nordisk A/S. The experiments were performed under the supervision and approval of the Danish Government Animal Experiments Inspectorate and the Novo Nordisk Ethical Review Counsel. Female Göttingen minipigs (Ellegaard Göttingen Minipigs A/S), 7–14 months old and weighing 16–35 kg, were housed individually and fed once daily with a restricted SDS minipig diet (Special Diets Services). At least one week before the study, two permanent central venous catheters were implanted in the caudal vena cava of each animal. The animals were fasted for approximately 18 h before dosing and 4 h after dosing but had ad libitum access to water during the whole period. Test compounds dissolved to a concentration of 20–40 nmol/mL in a vehicle (pH 7.4) containing 0.025% polysorbate-20, 10 mM sodium phosphate, and 250 mM glycerol were administered via an intravenous injection through one catheter at a dose of 2 nmol/kg. Blood samples were collected in 8 mM aqueous EDTA for up to 14 days post dosing, preferably through the other catheter, then centrifuged at 4 °C and ∼2000g for 10 min. Plasma was isolated and immediately frozen until RP-HPLC/MS analysis. Individual plasma concentration–time profiles were analysed by a non-compartmental model in Phoenix WinNonLin software (Pharsight Inc.), and the resulting terminal half-lives were determined at the harmonic mean.

[5] = tested on: DIO mice; test: Plasma parameters in DIO mice after chronic treatment; type: in vivo, mouse; details: higher dose (2 nmol/kg), compared to vehicle

T3 sequence (Q61606 27-485): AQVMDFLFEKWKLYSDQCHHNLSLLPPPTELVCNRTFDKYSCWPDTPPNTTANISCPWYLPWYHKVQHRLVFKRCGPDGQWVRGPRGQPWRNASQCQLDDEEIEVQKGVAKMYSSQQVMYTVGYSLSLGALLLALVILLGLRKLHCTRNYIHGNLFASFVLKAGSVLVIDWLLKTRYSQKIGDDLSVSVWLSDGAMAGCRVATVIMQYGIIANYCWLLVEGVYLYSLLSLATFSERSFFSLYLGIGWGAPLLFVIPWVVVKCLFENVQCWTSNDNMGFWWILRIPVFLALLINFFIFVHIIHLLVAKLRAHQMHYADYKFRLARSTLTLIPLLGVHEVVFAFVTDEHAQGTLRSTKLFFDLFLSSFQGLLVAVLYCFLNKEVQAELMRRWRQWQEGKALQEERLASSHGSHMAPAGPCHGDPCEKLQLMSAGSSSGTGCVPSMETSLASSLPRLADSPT

CC[C@H](C)[C@H](NC(=O)[C@H](CO)NC(=O)[C@H](Cc1ccc(O)cc1)NC(=O)[C@H](CC(=O)O)NC(=O)[C@H](CO)NC(=O)[C@@H](NC(=O)[C@H](Cc1ccccc1)NC(=O)[C@@H](NC(=O)CNC(=O)[C@H](Cc1c[nH]cn1)NC(=O)C(C)(C)NC(=O)[C@@H](N)Cc1c[nH]cn1)[C@@H](C)O)[C@@H](C)O)C(=O)N[C@@H](Cc1ccc(O)cc1)C(=O)N[C@@H](CC(C)C)C(=O)N[C@@H](CCC(=O)O)C(=O)N[C@@H](CCCCNC(=O)[C@@H](N)CCCCNC(=O)[C@@H](N)CCCCNC(=O)CC[C@H](NC(=O)CCCCCCCCCCCCCCCCCCC(=O)O)C(=O)O)C(=O)N[C@@H](CCCCN)C(=O)N[C@@H](Cc1ccc(O)cc1)C(=O)N[C@@H](C)C(=O)NC(C)(C)C(=O)N[C@@H](CCC(=O)O)C(=O)N[C@@H](Cc1ccccc1)C(=O)N[C@H](C(=O)N[C@@H](CCC(N)=O)C(=O)N[C@@H](Cc1c[nH]c2ccccc12)C(=O)N[C@@H](CC(C)C)C(=O)N[C@@H](CC(C)C)C(=O)N[C@@H](CCC(=O)O)C(=O)NCC(=O)NCC(=O)N1CCC[C@H]1C(=O)N[C@@H](CO)C(=O)N[C@@H](CO)C(=O)NCC(=O)N[C@@H](C)C(=O)N1CCC[C@H]1C(=O)N1CCC[C@H]1C(=O)N1CCC[C@H]1C(=O)N[C@@H](CO)C(N)=O)C(C)C [Compound 16] (H-H[Aib]HGTFTSDYSIYLEK([εLys-εLys-γGlu-C20 diacid])KYA[Aib]EFVQWLLEGGPSSGAPPPS-NH2)
mGLP-1 Receptor Relative Potency % [1]: 142% | mGIP Receptor Relative Potency % [2]: 265% | mGcg Receptor Relative Potency % [3]: 78% | Vd [4]: 0.164 L/kg | clearance [4]: 1.5 mL/h/kg | half-life [4]: 75 h | insulin levels [5]: decreased
